US10722488B2, “Hest G-18-0 and benzoyl peroxide compositions and methods for using the same” (RODAN & FIELDS, LLC, priority 2016, dated 2020)

How the values were obtained:
[1] = Solubility of benzoyl peroxide, judged by eye (crystals disappear or stay at the bottom); type: physicochemical
Description: In embodiments described herein, the solubility of benzoyl peroxide is increased. The composition of benzoyl peroxide and Hest G-18-0 is transparent. Solubility is measured by visualizing whether the solid crystalline form of benzoyl peroxide disappears in the liquid or if it can be seen at the bottom of the solution in an undissolved crystalline form.

[2] = cited from earlier work
skin of the forearm = details: in vivo

Molecule	solubility of benzoyl peroxide in Hest G-18-0 ([1]; 5% benzoyl peroxide in 100% Hest G-18-0, visual, FIG. 1 right beaker)	solubility of benzoyl peroxide in ethoxydiglycol ([1]; 5% benzoyl peroxide in 100% ethoxydiglycol, visual, FIG. 1 left beaker)	solubility of benzoyl peroxide in water ([2]; at 25° C.)	solubility in common cosmetic solvents ([2]; ethanol, glycerin, propylene glycol, or butylene glycol)	erythema of the skin (skin of the forearm)
O=C(OOC(=O)c1ccccc1)c1ccccc1 [benzoyl peroxide, Benzoyl peroxide]	completely dissolved	insolubility	9.1 ppm	practically insoluble	
Glycereth-18 ethylhexanoate [Hest G-18-0]					greatly reduced
